Measurements from PMC4912077 (PLoS ONE, 2016).
Entries after “also recorded” stand apart in the source; their conditions may differ. Like-named read-outs stand apart in the source and are kept apart here.

Columns and labels:
[1] = target: T1, Alpha2C (Homo sapiens, UniProt P18825); assay: NIMH PDSP radioligand binding, Alpha2C
T1 sequence (P18825 1-462): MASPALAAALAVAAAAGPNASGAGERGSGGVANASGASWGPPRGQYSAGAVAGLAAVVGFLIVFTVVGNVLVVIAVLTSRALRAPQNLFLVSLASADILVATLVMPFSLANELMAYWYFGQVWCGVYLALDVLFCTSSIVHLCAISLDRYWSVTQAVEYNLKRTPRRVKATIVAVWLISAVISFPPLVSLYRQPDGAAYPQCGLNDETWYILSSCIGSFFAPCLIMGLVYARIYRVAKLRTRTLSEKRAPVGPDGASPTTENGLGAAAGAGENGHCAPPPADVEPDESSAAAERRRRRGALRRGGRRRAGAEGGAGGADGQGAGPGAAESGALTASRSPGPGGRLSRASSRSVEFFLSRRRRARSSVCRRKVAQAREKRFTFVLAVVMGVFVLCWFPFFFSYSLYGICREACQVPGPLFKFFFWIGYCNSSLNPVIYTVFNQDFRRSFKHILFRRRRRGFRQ
Description: (§1) Radioligands and concentrations used for additional 45 CNS receptor binding assays are listed as supporting information (S1 Table). This work was performed by the National Institute of Mental Health Psychoactive Drug Screening Program (NIMH PDSP) as described previously.[26] Briefly target compounds were dissolved in DMSO and subjected to a primary screen at 10,000 nM concentration. […] Additional experimental details are available in the NIMH PDSP assay protocol book.

[2] = target: H1 (Homo sapiens, UniProt P35367); assay: NIMH PDSP radioligand binding, H1
Description: as §1

[3] = target: M5 (Homo sapiens, UniProt P08912); assay: NIMH PDSP radioligand binding, M5
[4] = system: Sprague–Dawley rats; assay: Pre-pulse inhibition (PPI) of acoustic startle in rats; type: in vivo, rat; details: for ED50: sc, rat, subcutaneous, read-out: ED50 for reduction of average PPI
Description: Male Sprague–Dawley rats from Harlan Industries (Indianapolis, IN, USA; initial weight 250–275 g) were housed in pairs under a 12-h reverse light/dark cycle (lights off at 0700 h). Use of a reversed light/dark cycle allows behavioral testing to be conducted during the awake phase of the light/dark cycle. Food and water were available ad libitum. Animals were acclimatized for approximately 1 wk after arrival prior to behavioral testing and maintained in Association for Assessment and Accreditation of Laboratory Animal Care (AAALAC)-approved facilities that meet all federal and state guidelines. Procedures were approved by the University of California San Diego institutional animal care and use committee. Principles of laboratory animal care were followed.
DPH hydrochloride and 2-MXP hydrochloride were dissolved in water containing 5% Tween-80 and administered subcutaneously, 10-min prior to the start of the startle test session. The injection volume was 1 ml/kg.
Eight startle chambers (SR-LAB system, San Diego Instruments, San Diego, CA, USA) were used to measure startle reactivity in rats. The startle test chambers were sound-attenuated, lighted, and ventilated enclosures containing a clear nonrestrictive cylindrical Plexiglas stabilimeter, 8.2 cm in diameter. A high-frequency loudspeaker mounted 24 cm above the Plexiglas cylinder produced all acoustic stimuli. The peak and average amplitudes of the startle response were detected by a piezoelectric accelerometer. At the onset of the startling stimulus, 100 1-ms readings were recorded, and the average amplitude was used to determine the magnitude of the startle response (measured in arbitrary units).
Acoustic startle test sessions consisted of startle trials (pulse-alone) and prepulse trials (prepulse + pulse). The pulse-alone trial consisted of a 40-ms 120-dB pulse of broadband white noise. Prepulse + pulse trials consisted of a 20-ms acoustic prepulse, an 80-ms delay, and then a 40-ms 120-dB startle pulse (100-ms onset–onset). There was an average of 15 s (range = 6–22 s) between trials. During each inter-trial interval, the movements of the animals were recorded once to measure response when no stimulus was present (data not shown). Each startle session began with a 5 min acclimation period to a 65-dB broadband noise that was present continuously throughout the session. One week after arrival, animals were tested in a brief baseline startle/PPI session to create treatment groups matched for levels of startle and PPI. The startle test session contained 12 pulse-alone trials and 36 prepulse + pulse trials (12 prepulses each of 68-, 71-, and 77-dB [equivalent to 3-, 6-, and 12-dB above background]) presented in a pseudo-randomized order. Six pulse-alone trials were presented at the beginning and the end of the test session but were not used in the calculation of PPI values. Raw data for all PPI experiments are provided as supporting information (S5 File).
The amount of PPI was calculated as a percentage score for each prepulse + pulse trial type: %PPI = 100−{[(startle response for prepulse + pulse trial)/(startle response for pulse-alone trial)] × 100}. Startle magnitude was calculated as the average response to all of the pulse-alone trials. PPI data were analyzed with two-factor analysis of variance (ANOVA) with treatment as the between-subjects factor and trial type (prepulse intensity) as a repeated measure. For experiments in which there was no significant interaction between drug and prepulse intensity, PPI data were collapsed across prepulse intensity and average PPI was used as the main dependent measure. ED50 values were calculated using nonlinear regression. Startle magnitude data were analyzed with one-factor ANOVA. Post-hoc analyses were performed using Tukey’s studentized range method. The alpha level was set at 0.05.

[5] = target: DAT (Homo sapiens, UniProt Q01959); assay: Monoamine reuptake inhibition assay, DAT in HEK293 cells; type: cell-based; set-up: expressed in transfected cells; host or cells: HEK293; details: for Hill slope DAT reuptake inhibition: HEK293 cells
Description: (§2) Monoamine reuptake inhibition assays were performed via the NIMH PDSP as previously described.[28] In brief, the neurotransmitter transporter uptake assay kit (R8174) (Molecular Devices) was used. Human monoamine transporters (DAT, NET and SERT) were stably expressed in HEK293 cells. Assay buffer consisted of 20 mM HEPES, 1x HBSS at pH 7.4. Cells were plated in Pol-L-Lys (PLL) coated 384-well black clear bottom cell culture plates with a density of 15,000 cells/well. Cells were incubated for at least 6 h prior to assay. Media was removed and replaced with 20 μL assay buffer and 5 μL of drug or positive control (cocaine or nisoxetine) as a 5X stock. Cells were incubated for 30 min at 37°C. 25 μL of dye solution was then added and following an additional 30 min incubation (at 37°C) fluorescence intensity was measured using a FlexStation II (bottom read mode, excitation wavelength = […], emission = 520 nM with a cutoff of 510 nM). […] Additional details are available in the NIMH PDSP assay protocol book.

[6] = target: NET (Homo sapiens, UniProt P23975); assay: Monoamine reuptake inhibition assay, NET in HEK293 cells; type: cell-based; set-up: expressed in transfected cells; host or cells: HEK293; details: for Hill slope NET reuptake inhibition: HEK293 cells
Description: as §2

[7] = system: PCP site within the NMDAR channel; assay: NMDAR binding, [3H]-MK-801 displacement in rat forebrain homogenate; details: for Ki: read-out: Ki ± SEM, [3H]-(+)-MK-801, rat forebrain, Cheng-Prusoff;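 as to all read-outs here: IC50 by nonlinear regression of percent specific binding versus log concentration, Ki from IC50 via Cheng-Prusoff, raw counts in CPM, duplicates repeated at least three times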
Description: The reaction was terminated by vacuum filtration using a 24 well cell harvester (Brandel, Gaithersburg, MD) over presoaked GF/B glass fiber filters (Brandel, Gaithersburg, MD). Filters were washed with room temperature assay buffer (3 x 5 mL). […] IC50 values were determined in Graphpad Prism 5.0 using non-linear regression with log-concentration plotted against percent specific binding. […] Ki values were calculated using the equation of Cheng and Prusoff [24]. […] Protein concentration was determined via the Bradford method using Coomassie protein assay reagent (Sigma, USA) [25] with rat albumin (Sigma, USA) as standard. Experiments were performed in duplicate and repeated a minimum of three times.

Sequence of NET (P23975 whole entry): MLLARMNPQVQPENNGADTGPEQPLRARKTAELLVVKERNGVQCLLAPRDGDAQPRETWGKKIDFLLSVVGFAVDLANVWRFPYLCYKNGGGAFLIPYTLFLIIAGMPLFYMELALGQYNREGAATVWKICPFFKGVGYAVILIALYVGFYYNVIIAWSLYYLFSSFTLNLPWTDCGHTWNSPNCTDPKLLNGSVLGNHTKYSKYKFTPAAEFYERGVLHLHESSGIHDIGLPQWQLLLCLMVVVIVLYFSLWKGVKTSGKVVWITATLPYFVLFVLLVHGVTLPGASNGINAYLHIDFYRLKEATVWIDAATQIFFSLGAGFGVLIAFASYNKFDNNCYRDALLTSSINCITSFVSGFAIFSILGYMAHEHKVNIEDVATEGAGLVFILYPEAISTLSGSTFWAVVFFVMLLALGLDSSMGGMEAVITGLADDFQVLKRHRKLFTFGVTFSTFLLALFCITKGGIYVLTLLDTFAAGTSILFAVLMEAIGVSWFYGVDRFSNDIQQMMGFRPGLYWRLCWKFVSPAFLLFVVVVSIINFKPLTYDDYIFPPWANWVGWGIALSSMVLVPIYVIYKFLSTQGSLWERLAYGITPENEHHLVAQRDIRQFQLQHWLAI
Sequence of DAT (Q01959 whole entry): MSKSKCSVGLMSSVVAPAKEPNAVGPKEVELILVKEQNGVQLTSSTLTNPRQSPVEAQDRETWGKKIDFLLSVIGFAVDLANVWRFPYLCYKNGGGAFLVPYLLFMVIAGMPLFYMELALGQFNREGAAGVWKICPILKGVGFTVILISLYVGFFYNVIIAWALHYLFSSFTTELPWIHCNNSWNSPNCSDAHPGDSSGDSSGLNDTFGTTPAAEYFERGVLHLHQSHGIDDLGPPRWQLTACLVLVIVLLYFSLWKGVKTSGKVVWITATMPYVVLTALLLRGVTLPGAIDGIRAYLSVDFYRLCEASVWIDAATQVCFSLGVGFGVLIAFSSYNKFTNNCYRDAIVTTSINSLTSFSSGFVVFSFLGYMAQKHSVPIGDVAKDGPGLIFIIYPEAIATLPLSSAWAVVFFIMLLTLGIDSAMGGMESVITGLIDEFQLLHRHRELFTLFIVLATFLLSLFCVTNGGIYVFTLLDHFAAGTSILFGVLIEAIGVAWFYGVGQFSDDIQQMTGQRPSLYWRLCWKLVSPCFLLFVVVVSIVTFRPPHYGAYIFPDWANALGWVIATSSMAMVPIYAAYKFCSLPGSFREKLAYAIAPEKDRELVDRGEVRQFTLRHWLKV
Sequence of M5 (P08912 whole entry): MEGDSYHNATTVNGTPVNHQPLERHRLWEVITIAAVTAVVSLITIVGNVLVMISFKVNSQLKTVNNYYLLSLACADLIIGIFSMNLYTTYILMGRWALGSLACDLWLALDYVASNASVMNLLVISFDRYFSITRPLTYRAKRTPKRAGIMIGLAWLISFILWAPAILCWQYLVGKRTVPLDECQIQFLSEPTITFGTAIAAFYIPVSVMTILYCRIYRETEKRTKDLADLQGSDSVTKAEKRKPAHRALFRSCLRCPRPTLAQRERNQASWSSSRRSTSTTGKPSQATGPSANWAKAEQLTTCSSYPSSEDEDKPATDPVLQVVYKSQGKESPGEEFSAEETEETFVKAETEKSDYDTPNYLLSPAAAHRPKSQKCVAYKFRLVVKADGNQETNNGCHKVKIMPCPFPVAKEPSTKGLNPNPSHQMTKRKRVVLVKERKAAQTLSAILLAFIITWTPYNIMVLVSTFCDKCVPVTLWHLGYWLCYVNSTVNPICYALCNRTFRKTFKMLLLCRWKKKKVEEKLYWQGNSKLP
Sequence of H1 (P35367 whole entry): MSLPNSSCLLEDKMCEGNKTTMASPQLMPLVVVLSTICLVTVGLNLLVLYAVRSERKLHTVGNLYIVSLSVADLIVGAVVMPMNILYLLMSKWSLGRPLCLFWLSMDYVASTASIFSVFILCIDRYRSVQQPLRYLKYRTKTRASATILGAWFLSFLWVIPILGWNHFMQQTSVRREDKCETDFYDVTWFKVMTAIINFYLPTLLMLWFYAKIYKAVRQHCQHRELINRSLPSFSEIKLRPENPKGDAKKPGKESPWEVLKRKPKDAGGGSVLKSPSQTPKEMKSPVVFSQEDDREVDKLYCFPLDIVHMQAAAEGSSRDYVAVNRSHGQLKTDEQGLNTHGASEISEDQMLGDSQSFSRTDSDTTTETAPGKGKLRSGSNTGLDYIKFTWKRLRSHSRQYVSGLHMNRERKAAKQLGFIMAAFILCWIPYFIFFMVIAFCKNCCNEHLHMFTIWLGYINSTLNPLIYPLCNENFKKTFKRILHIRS

In the case of `c1ccc(CC(c2ccccc2)N2CCCCC2)cc1` (centres unmarked) [DPH, diphenidine], the Ki [1] is reported as 3.05 µM, the Ki [2] is reported as 1.34 µM and the Ki [3] is reported as 1.65 µM. For the same molecule, the “effect on average PPI” value ([4]; 10 mg/kg s.c., first dose-response experiment) was “significantly reduced average PPI”, the “effect on PPI” value ([4]; 10, 20 and 30 mg/kg s.c., second experiment) was “reduced PPI at all three prepulse intensities” and the ED50 ([4]; 10 min before test) was 9.5 mg/kg. The ED50 ([4]; 95% CI in parentheses) was 31.5 µmol/kg, the IC50 [5] was 1.99 µM and the “Hill slope DAT reuptake inhibition” value [5] was 0.91. The IC50 [6] was 9.25 µM, the “Hill slope NET reuptake inhibition” value [6] was 0.97 and the “NMDAR affinity relative to ketamine” value ([7]; higher affinity) was ~ 18 fold. The Ki [7] was 0.0182 ± 0.0022 µM.

In the case of `COc1ccccc1C(Cc1ccccc1)N1CCCCC1` (centres unmarked) [2-MXP, 2-methoxydiphenidine], the Ki [1] is reported as 1.94 µM, the Ki [2] is reported as 0.533 µM and the Ki [3] is reported as 1.53 µM. For the same molecule, the “effect on PPI” value ([4]; 20 mg/kg s.c.) was “did disrupt PPI; also recorded: significant inhibition of PPI”, the “effect on PPI” value ([4]; doses up to 10 mg/kg s.c.) was “did not alter PPI” and the IC50 [5] was 30 µM. The “Hill slope DAT reuptake inhibition” value [5] was 0.81, the IC50 [6] was 35.2 µM and the “Hill slope NET reuptake inhibition” value [6] was 2.04. For the same molecule, the Ki [7] was 0.036 ± 0.0037 µM.
